For the test, the target named is BRD4 protein (Homo sapiens, UniProt O60885). Put plainly: FRET assay, half maximal inhibitory concentration (IC50). As to conditions: BRD4 protein 50 nM, Biotin-H4KAc4 peptide 12.5 nM; List of Classification. Type of test: binding. The procedure:
The compounds were biologically evaluated by determining the half maximal inhibitory concentration (IC50) by FRET assay. The IC50 is a measure of the effectiveness of a substance in inhibiting a specific biological or biochemical function.
For IC50 determinations, dose-response curves were generated, using a top concentration of 50 μM compound in 12.5% DMSO, followed by 10-fold dilutions in 12.5% DMSO. The composition of the reaction buffer was 50 mM HEPES, pH 7.5; 100 mM NaCl, 0.05% CHAPS.
The reaction was run in a final volume of 25 μl. The BRD4 protein (16.5 μl) was added to wells of 384w white Optiplates (Perkin Elmer) (50 nM final concentration) and 1 μl of compound dilution of DMSO control. Incubation time was 30 minutes at room temperature. In the next step, 2.5 μl Biotin-H4KAc4 peptide (Millipore 13-379) was added to the wells (final concentration was 12.5 nM), and the plates were incubated for 30 minutes at room temperature. Detection was performed by addition of 5 μl of a mix of mAb GST-XL665 (Cisbio 61GSTXLB) (10 nM final concentration) and Streptavidin Cryptate (Cisbio 610SAKLB) (2.4 nM final conc.) in reaction buffer with 0.4M KF and 0.05% BSA). The plates were incubated for one hour prior to reading on an Envision reader (Perkin Elmer)
Data was analyzed using GraphPad Prism, and IC50 data was obtained using non-linear regression curve fit using log(inhibitor) vs response (variable slope). All compounds were considered active although classified (according to the half maximal inhibitory concentration (IC50) by FRET assay) as follows: […]
Broadly, the IC50 is the concentration that gives 50% inhibition. Turning to `Cc1cc(O)nc2ccc(NC(=O)c3cc(CN4CCNCC4)ccc3N3CCCC3)cc12` [Compound-2, N-(2-hydroxy-4-methylquinolin-6-yl)-5-(piperazin-1-ylmethyl)-2-(pyrrolidin-1-yl)benzamide], the IC50 is less than 200 nM.

In the case of `Cc1cc(O)nc2ccc(NC(=O)c3cc(CN4CCOCC4)ccc3N3CCCC3)cc12` [Compound-3, N-(2-hydroxy-4-methylquinolin-6-yl)-5-(morpholinomethyl)-2-(pyrrolidin-1-yl)benzamide], the IC50 is less than 200 nM.

The compound `CC(=O)N1CCN(Cc2ccc(N3CCCC3)c(C(=O)Nc3ccc4nc(O)cc(C)c4c3)c2)CC1` [Compound-4, 5-[(4-acetylpiperazin-1-yl)methyl]-N-(2-hydroxy-4-methyl-6-quinolyl)-2-pyrrolidin-1-yl-benzamide] gave an IC50 of less than 200 nM.

`Cc1cc(O)nc2ccc(NC(=O)c3cc(S(=O)(=O)N4CCN(C)CC4)ccc3N3CCOCC3)cc12` [Compound-5, N-(2-hydroxy-4-methylquinolin-6-yl)-5-(4-methylpiperazin-1-ylsulfonyl)-2-morpholino benzamide] yielded an IC50 of less than 200 nM.

On to `Cc1cc(O)nc2ccc(NC(=O)c3cc(S(=O)(=O)N4CCC(N(C)C)C4)ccc3N3CCOCC3)cc12` (stereo not shown) [Compound-6, 5-[3-(dimethylamino)pyrrolidin-1-yl]sulfonyl-N-(2-hydroxy-4-methyl-6-quinolyl)-2-morpholino-benzamide], for which the concentration for half-maximal inhibition (IC50) is less than 200 nM.

Compound `Cc1cc(O)nc2ccc(NC(=O)c3cc(S(=O)(=O)N4CC(N(C)C)C4)ccc3N3CCOCC3)cc12` [Compound-7, 5-[3-(dimethylamino)azetidin-1-yl]sulfonyl-N-(2-hydroxy-4-methyl-6-quinolyl)-2-morpholino-benzamide] yielded an IC50 of less than 200 nM.

With `Cc1cc(O)nc2ccc(NC(=O)c3cc(S(=O)(=O)N4CC(N)C4)ccc3N3CCOCC3)cc12` [Compound-8, 1-(3-(2-hydroxy-4-methylquinolin-6-ylcarbamoyl)-4-morpholinophenylsulfonyl) azetidin-3-aminium 2,2,2-trifluoroacetate], the half-maximal inhibitory concentration (IC50) was less than 200 nM.

Turning to `Cc1cc(O)nc2ccc(NC(=O)c3cc(C(=O)N(C)C)ccc3N3CCOCC3)cc12` [Compound-9, N3-(2-hydroxy-4-methyl-6-quinolyl)-N1,N1-dimethyl-4-morpholino-benzene-1,3-dicarboxamide], the IC50 was less than 200 nM.

The compound `Cc1cc(O)nc2ccc(NC(=O)c3cc(C(=O)N4CCN(C)CC4)ccc3N3CCOCC3)cc12` [Compound-10, N-(2-hydroxy-4-methyl-6-quinolyl)-5-(4-methylpiperazine-1-carbonyl)-2-morpholino-benzamide] returned an IC50 of less than 200 nM.

`Cc1cc(O)nc2ccc(NC(=O)c3cc(C(=O)N4CCOCC4)ccc3N3CCOCC3)cc12` [Compound-11, N-(2-hydroxy-4-methylquinolin-6-yl)-5-(morpholine-4-carbonyl)-2-morpholinobenzamide] came in with a half-inhibitory concentration (IC50) of 200 to 500 nM.

`Cc1cc(O)nc2ccc(NC(=O)c3cc(C(N)=O)ccc3N3CCOCC3)cc12` [Compound-12, N3-(2-hydroxy-4-methyl-6-quinolyl)-4-morpholino-benzene-1,3-dicarboxamide] showed a 50% inhibitory concentration (IC50) of 200 to 500 nM.

`COCc1ccc(N2CCCC2)c(C(=O)Nc2ccc3nc(O)cc(C)c3c2)c1` [Compound-13, N-(2-hydroxy-4-methylquinlin-6-yl)-5-(methoxymethyl)-2-(pyrrolidin-1-yl) benzamide] returned a half-maximal inhibitory concentration (IC50) of less than 200 nM.

Compound `Cc1cc(O)nc2ccc(NC(=O)c3cc(CO)ccc3N3CCCC3)cc12` [Compound-14, N-(2-hydroxy-4-methylquinlin-6-yl)-5-(hydroxymethyl)-2-(pyrrolidin-1-yl) benzamide] came in with an IC50 of 200 to 500 nM.

Take `Cc1cc(O)nc2ccc(NC(=O)c3cc(S(=O)(=O)N(C)C)ccc3N3CCN(C)CC3)cc12` [Compound-15, 5-(N, N-dimethylsulfamoyl)-N-(2-hydroxy-4-methylquinolin-6-yl)-2-(4-methylpiperazin-1-yl) benzamide]: the IC50 was less than 200 nM.

On to `Cc1cc(O)nc2ccc(NC(=O)c3cc(S(=O)(=O)N(C)C)ccc3N3CCC(N(C)C)C3)cc12` (stereo not shown) [Compound-16, 2-[3-(dimethylamino)pyrrolidin-1-yl]-5-(dimethylsulfamoyl)-N-(2-hydroxy-4-methyl-6-quinolyl)benzamide], for which the IC50 was 200 to 500 nM.

`Cc1cc(O)nc2ccc(NC(=O)c3cc(S(=O)(=O)N(C)C)ccc3N3CCC(O)C3)cc12` (stereo not shown) [Compound-17, 5-(dimethylsulfamoyl)-N-(2-hydroxy-4-methyl-6-quinolyl)-2-(3-hydroxypyrrolidin-1-yl)benzamide] yielded a 50% inhibitory concentration (IC50) of less than 200 nM.

Turning to `Cc1cc(O)nc2ccc(NC(=O)c3cc(S(=O)(=O)N(C)C)ccc3NCCN(C)C)cc12` [Compound-18, 2-(2-dimethylaminoethylamino)-5-(dimethylsulfamoyl)-N-(2-hydroxy-4-methyl-6-quinolyl)benzamide], the concentration for half-maximal inhibition (IC50) is more than 10000 nM.

In turn, `Cc1cc(O)nc2ccc(NC(=O)c3cc(S(=O)(=O)N(C)C)ccc3NCCO)cc12` [Compound-19, 5-(dimethylsulfamoyl)-2-(2-hydroxyethylamino)-N-(2-hydroxy-4-methyl-6-quinolyl)benzamide] yielded a half-maximal inhibitory concentration (IC50) of more than 10000 nM.

On to `Cc1cc(O)nc2ccc(NC(=O)c3cc(S(=O)(=O)N(C)C)ccc3N3CC(N(C)C)C3)cc12` [Compound-20, 2-[3-(dimethylamino)azetidin-1-yl]-5-(dimethylsulfamoyl)-N-(2-hydroxy-4-methyl-6-quinolyl)benzamide], for which the concentration for half-maximal inhibition (IC50) lay within 200 to 500 nM.

Turning to `Cc1cc(O)nc2ccc(N(C)C(=O)c3cc(S(=O)(=O)N(C)C)ccc3N3CCN(C)CC3)cc12` [Compound-21, 5-(N, N-dimethylsulfamoyl)-N-(2-hydroxy-4-methylquinolin-6-yl)-N-methyl-2-(4-methylpiperazin-1-yl) benzamide], the IC50 was more than 10000 nM.

The compound `Cc1cc(O)nc2ccc(N(C)C(=O)c3cc(S(=O)(=O)N4CCOCC4)ccc3N3CCCC3)cc12` [Compound-22, N-(2-hydroxy-4-methylquinolin-6-yl)-N-methyl-5-(morpholinosulfonyl)-2-(pyrrolidin-1-yl) benzamide] showed an IC50 of more than 10000 nM.

Regarding `Cc1cc(O)nc2ccc(NC(=O)c3cc([N+](=O)[O-])cnc3N3CCCC3)cc12` [Compound-23, N-(2-hydroxy-4-methyl-6-quinolyl)-5-nitro-2-pyrrolidin-1-yl-pyridine-3-carboxamide], the IC50 was in the range of 1000 to 10000 nM.

The compound `Cc1cc(O)nc2ccc(NC(=O)c3cc(N)cnc3N3CCCC3)cc12` [Compound-24, 5-amino-N-(2-hydroxy-4-methyl-6-quinolyl)-2-pyrrolidin-1-yl-pyridine-3-carboxamide] came in with an IC50 of less than 200 nM.

Regarding `Cc1cc(O)nc2ccc(NC(=O)c3cc(NCC(N)=O)cnc3N3CCCC3)cc12` [Compound-25, 5-[(2-amino-2-oxo-ethyl)amino]-N-(2-hydroxy-4-methyl-6-quinolyl)-2-pyrrolidin-1-yl-pyridine-3-carboxamide], the IC50 is 200 to 500 nM.

Compound `COCC1CCCN1c1ccc(CN2CCOCC2)cc1C(=O)Nc1ccc2nc(O)cc(C)c2c1` (stereo not shown) [Compound-26, N-(2-hydroxy-4-methylquinolin-6-yl)-2-(2-(methoxymethyl)pyrrolidin-1-yl)-5-(morpholinomethyl) benzamide] had a concentration for half-maximal inhibition (IC50) of less than 200 nM.

For the compound `Cc1cc(O)nc2ccc(NC(=O)c3cc(CN4CCOCC4)ccc3N3CCCC3c3cc[nH]n3)cc12` (stereo not shown) [Compound-27, 2-(2-(1H-pyrazol-3-yl)pyrrolidin-1-yl)-N-(2-hydroxy-4-methylquinolin-6-yl)-5-(morpholinomethyl) benzamide], the IC50 is 1000 to 10000 nM.

`O=C(Nc1ccc2nc(O)cc(C(F)(F)F)c2c1)c1cc(CN2CCOCC2)ccc1N1CCCC1` [Compound-28, N-(2-hydroxy-4-(trifluoromethyl)quinolin-6-yl)-5-(morpholinomethyl)-2-(pyrrolidin-1-yl) benzamide]: the IC50 fell in the range of 500 to 1000 nM.

Regarding `Cc1cc2nc(O)cc(C)c2cc1NC(=O)c1cc(CN2CCOCC2)ccc1N1CCCC1` [Compound-29, N-(2-hydroxy-4,7-dimethylquinolin-6-yl)-5-(morpholinomethyl)-2-(pyrrolidin-1-yl)benzamide], the IC50 is less than 200 nM.

Take `Cc1cc(O)nc2ccc(NC(=O)c3cc(CN4CCOCC4)ccc3N3CCCC3CO)cc12` (stereo not shown) [Compound-30, N-(2-hydroxy-4-methylquinolin-6-yl)-2-(2-(hydroxymethyl)pyrrolidin-1-yl)-5-(morpholinomethyl) benzamide]: the half-inhibitory concentration (IC50) is less than 200 nM.

Take `Cc1cc(O)nc2ccc(NC(=O)c3cc(CN4CCOCC4)ccc3N3CCC(O)C3)cc12` (stereo not shown) [Compound-31, N-(2-hydroxy-4-methyl-6-quinolyl)-2-(3-hydroxypyrrolidin-1-yl)-5-(morpholinomethyl)benzamide]: the 50% inhibitory concentration (IC50) is less than 200 nM.

`Cc1cc(O)nc2ccc(NC(=O)c3cc(CN4CCOCC4)ccc3N3CCCC3CN(C)C)cc12` (stereo not shown) [Compound-32, 2-(2-((dimethylamino)methyl)pyrrolidin-1-yl)-N-(2-hydroxy-4-methylquinolin-6-yl)-5-(morpholinomethyl) benzamide] returned an IC50 of less than 200 nM.

The values are drawn from US10752640B2, “Compounds active towards bromodomains” (NUEVOLUTION A/S, priority 2014, dated 2020).
